# From patent publication US12478509B2, “Layered composite for scar treatment and prevention” (THE GOVERNMENT OF THE UNITED STATES AS REPRESENTED BY THE …, priority 2019, dated 2025)
# Experiments:
# [1] = test system: IL-1β, IL-2, IL-6, IL-13, G-CSF, and MIP-1α; experiment: inflammatory cytokines
# mouse DPT wounds = experiment: neutrophil infiltration in mouse DPT burn wounds; format: in vivo
# [2] = test system: human dermal fibroblasts (HDF); experiment: human dermal fibroblast / myofibroblast studies; format: cell-based
# p38 MAPK = p38 MAPK activation in TGF-β1 stimulated HDF; format: cell-based, human
structure (smiles),measurement,setting,value
"Cc1ccc(=O)n(-c2ccccc2)c1 [Pirfenidone, 5-methyl-1-phenyl-2-(1H)-pyridone]","key inflammatory cytokines IL-1β, IL-2, IL-6, IL-13, G-CSF, and MIP-1α",[1],reduced
same,neutrophil infiltration,mouse DPT wounds,decreased
same,HDF transdifferentiation to myofibroblasts,[2],inhibited
same,collagen deposition and fibrosis-related gene expression,[2],decreased
same,contractile machinery of activated dermal myofibroblasts,[2],weakened
same,p38 MAPK activation,p38 MAPK,reduced
